Source: PubChem BioAssay (NCI)
“And” between values parts separate entries of the source, which are not always exact repeats. Equal values may be shown once.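 Grown in 96-well plates, cells were treated for 48 hours with each compound at five concentrations. Insufficient inhibition: endpoint recorded as highest concentration tested. At the GI50, growth is halved. TGI denotes the concentration required for complete inhibition of growth.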

Assays:
Experiment in all cases: inhibition of tumour cell growth, NCI panel, 48 h
786-0 renal = test system: 786-0 renal
CAKI-1 renal = test system: CAKI-1 renal
HCT-15 colon = test system: HCT-15 colon
MALME-3M melanoma = test system: MALME-3M melanoma
MCF7 breast = test system: MCF7 breast
NCI-H23 lung = test system: NCI-H23 lung
OVCAR-5 ovarian = test system: OVCAR-5 ovarian
SF-268 CNS = test system: SF-268 CNS
SF-295 CNS = test system: SF-295 CNS
SK-OV-3 ovarian = test system: SK-OV-3 ovarian

SMILES | GI50 (786-0 renal) [µM] | TGI (786-0 renal) | GI50 (CAKI-1 renal) [µM] | TGI (CAKI-1 renal) | GI50 (HCT-15 colon) [µM] | TGI (HCT-15 colon) [µM] | GI50 (MALME-3M melanoma) [µM] | TGI (MALME-3M melanoma) | GI50 (MCF7 breast) [µM] | TGI (MCF7 breast) [µM] | GI50 (NCI-H23 lung) [µM] | TGI (NCI-H23 lung) | GI50 (OVCAR-5 ovarian) [µM] | TGI (OVCAR-5 ovarian) | GI50 (SF-268 CNS) [µM] | TGI (SF-268 CNS) | GI50 (SF-295 CNS) [µM] | TGI (SF-295 CNS) | GI50 (SK-OV-3 ovarian) [µM] | TGI (SK-OV-3 ovarian) [µM]
COc1ccc(-n2cc(-c3ccc(F)cc3)[nH]c2=O)cc1OC | > 100 | > 100 µM | > 100 | > 100 µM | > 100 | > 100 | > 100 | > 100 µM | > 100 | > 100 | > 100 | > 100 µM | > 100 | > 100 µM | > 100 | > 100 µM | > 100 | > 100 µM | > 100 | > 100
COc1ccccc1NC(=O)C(=O)C(C#N)CC(C)(C)C=O (configuration not stated) | – | > 100 µM | – | > 100 µM | – | > 100 | – | > 100 µM | – | > 100 | – | > 100 µM | – | > 100 µM | – | > 100 µM | – | > 100 µM | – | > 100
COc1cc(-c2nc3cc(Cl)c(Cl)cc3[nH]2)ccc1OCC(=O)N=Nc1c(O)[nH]c2ccccc12 | 0.37 | 1.54 µM | 1.45 | 2.94 µM | – | > 56.5 | 0.226 | 0.683 µM | 0.201 | 0.479 | 0.287 | 0.938 µM | 0.84 | 2.45 µM | 0.566 | 3.06 µM | 1.28 | 2.71 µM | 1.91 | 4.39
COc1cc2c(cc1OC)-c1c(c3ccc([N+](=O)[O-])cc3c(=O)n1CCCBr)C2=O | 2.93 | > 100 µM | 0.513 | > 100 µM | 61.8 | > 100 | 9.72 | 81.1 µM | 0.0985 | > 100 | 3.32 | 67.5 µM | > 100 | > 100 µM | 29 | > 100 µM | 9.07 | > 100 µM | 60.5 | > 100
C=C(C=O)[C@@H]1CC=C(C=O)CC1 | 16.8 | 80 µM | 29.1 | > 100 µM | 2.4 | 10.1 | 4.39 | > 26 µM | 2.96 | > 35.5 | 3.83 | > 100 µM | 26.5 | 73 µM | 2.94 | 16.1 µM | 12 | 97.3 µM | 20.1 | 50.5
CN(Cc1cccc(Cl)c1)c1ccc(CO)c(Cl)c1 | 12.4 | 27.2 µM | 2.36 | 23.4 µM | 16.1 | > 76.7 | 18.7 | 42.3 µM | 1.55 | 15.8 | 11.5 | 46.1 µM | 0.602 | 3.84 µM | 24 | > 53.5 µM | 3.7 | 32.1 µM | 8.16 | 28.3
CC(=O)O[C@H]1CC[C@@]2(C)[C@@H](CC[C@@H]3[C@@H]2CC(=O)[C@@]2(C)[C@H]3C[C@@H]3CC(C)=CC(=O)[C@@H]32)C1 | – | > 100 µM | – | > 100 µM | – | > 100 | – | > 100 µM | – | > 100 | – | > 100 µM | – | > 100 µM | – | > 100 µM | – | > 100 µM | – | > 100
O=C1COCCN1c1ccc(NCc2cn(Cc3ccc(F)cc3)c3ccccc23)cc1 | 2.7 | 41 µM | 0.0252 | 0.418 µM | 4.13 | 31 | 3.47 | 15.4 µM | 0.114 | 13 | 2.64 | 32.1 µM | 0.0418 | 0.231 µM | 9.7 | 50.4 µM | 0.927 | 27.5 µM | 1.65 | 8.14
CC/C(=C(/c1ccc(Cl)cc1)c1ccc(OCCCN(C)C)cc1)c1ccc(OC)cc1 | 0.771 | 1.46 µM | 5.55 | 12.5 µM | 1.44 | 5.08 | 1.2 | 2.67 µM | 1.05 | 5.89 | 7.43 | 15.1 µM | 6.54 | 14.2 µM | 7.6 | 16.3 µM | 0.918 | 1.87 µM | 10.2 | 17.5
Cc1cc(=O)[nH]c2c1C(=O)C(=O)C=C2 | 18.7 | 36.3 µM | 19.4 | 37.4 µM | 60.5 | > 100 | 29.8 | 96.8 µM | 29 | 60.6 | 21.9 | 48.3 µM | 41.3 | > 100 µM | 18.7 | 43.7 µM | 24.1 | 52.8 µM | > 100 | > 100
Nc1c(S(=O)(=O)O)cc2c(c1Cl)C(=O)c1ccccc1C2=O | > 100 | > 100 µM | > 100 | > 100 µM | > 100 | > 100 | > 100 | > 100 µM | > 100 | > 100 | > 100 | > 100 µM | > 100 | > 100 µM | > 100 | > 100 µM | > 100 | > 100 µM | > 100 | > 100
O=C1/C=C/[C@@H](O)[C@@H]2C[C@@H](O)C[C@H]2/C=C/CCCCO1 | 0.25 | 0.615 µM | 0.785 | – | 0.364 | – | 0.321 | 3.24 µM | 0.327 | 1.88 | 0.488 | 63.1 µM | 0.682 | > 61.7 µM | 0.33 | – | 0.774 | > 100 µM | 1.05 | > 100
COc1nc(C(Cl)(Cl)Cl)c(Cl)c(OC)c1Cl | > 41.1 | > 55.3 µM and 18.8 µM | > 46 | > 72.9 µM and 74.6 µM | – | 75.6 | > 45.4 | > 65.8 µM and 64.4 µM | – | 66.8 | > 31.6 | > 31.6 µM and 79.4 µM | – | > 72.4 µM and 78.7 µM | > 52.2 | > 92.1 µM and 72.2 µM | – | > 56.9 µM and 75.3 µM | > 64.2 | 26.9
COc1ccc2c(C(=O)NCCCCCC(=O)O)cc3cc4c(cc3c2c1)OCO4 | > 100 | > 100 µM | > 100 | > 100 µM | > 100 | > 100 | > 100 | > 100 µM | > 100 | > 100 | > 100 | > 100 µM | > 100 | > 100 µM | 58 | > 100 µM | > 100 | > 100 µM | > 100 | > 100
Cc1cnc2n(c1=O)Cc1ccccc1CO2 | 18.8 | 39.4 µM | 16.9 | 32.5 µM | 17.1 | 33.8 | 19.8 | 44.9 µM | 10.6 | 28.1 | 21.1 | 60.5 µM | 27.4 | > 92.4 µM | 20.3 | 67.6 µM | 33.2 | > 100 µM | 41 | > 100
Cn1cc(C2=C(c3cn(CCCN/C(N)=N\[N+](=O)[O-])c4ccccc34)C(=O)NC2=O)c2ccccc21 | 5.07 | > 25 µM | 8.06 | > 25 µM | 19.8 | > 25 | 6.38 | 15.9 µM | 1.15 | > 22.6 | 5.13 | 15.9 µM | 11.4 | > 25 µM | 3.11 | 11.6 µM | 3.74 | > 23.6 µM | 3.43 | > 20
C=CCOc1ccc2c(c1)CC[C@@H]1[C@@H]2CC[C@]2(C)C(=O)/C(=N/O)C[C@@H]12 | 4.77 | 25.4 µM | 1.9 | > 100 µM | 2.05 | 7.06 | 18 | 44.4 µM | 2.72 | 13.2 | 10.1 | 52.8 µM | 4.18 | > 45.4 µM | 3.71 | > 41.9 µM | 14.6 | > 68.2 µM | 6.97 | 20.3
